Measurements published in US20070093455A1, “10-substituted tetracyclines and methods of use thereof” (priority 2005, published 2007).
pIC50: −log10 of the molar value. Converted amounts (≈) assume the structure as drawn.

system: S. aureus RN450; assay: In vitro MIC assay, S. aureus RN450; type: cell-based; conditions: Staphylococcus aureus, broth microdilution, 35° C., 18-24 hours

| Structure (SMILES) | MIC [µg/mL] |
| --- | --- |
| NC(=O)C1=C(O)CC2CC3Cc4ccccc4C(=O)C3=C(O)[C@]2(O)C1=O (stereo partly drawn) [F] | 0 to 21 |
| CN(C)c1cc(C(=O)O)cc2c1CC1CC3[C@@H](N(C)C)C(O)=C(C(N)=O)C(=O)[C@@]3(O)C(O)=C1C2=O (stereo partly drawn) [G] | 44 to 64 (≈ 90.6 to 132 µM) |
| CC(=O)c1cc2c(c(N(C)C)c1)CC1CC3[C@H](N(C)C)C(O)=C(C(N)=O)C(=O)[C@@]3(O)C(O)=C1C2=O (stereo partly drawn) [H] | 44 to 64 (≈ 91 to 132 µM) |

system: S. aureus RN4250; assay: In vitro MIC assay, S. aureus RN4250; type: cell-based; conditions: Staphylococcus aureus, broth microdilution, 35° C., 18-24 hours

| Structure (SMILES) | MIC [µg/mL] |
| --- | --- |
| NC(=O)C1=C(O)CC2CC3Cc4ccccc4C(=O)C3=C(O)[C@]2(O)C1=O (stereo partly drawn) [F] | 0 to 21 |
| CN(C)c1cc(C(=O)O)cc2c1CC1CC3[C@@H](N(C)C)C(O)=C(C(N)=O)C(=O)[C@@]3(O)C(O)=C1C2=O (stereo partly drawn) [G] | 44 to 64 (≈ 90.6 to 132 µM) |
| CC(=O)c1cc2c(c(N(C)C)c1)CC1CC3[C@H](N(C)C)C(O)=C(C(N)=O)C(=O)[C@@]3(O)C(O)=C1C2=O (stereo partly drawn) [H] | 44 to 64 (≈ 91 to 132 µM) |

system: E. coli translation; assay: In vitro translation assay for inhibition of bacterial protein synthesis (E. coli S30 Extract System, luciferase); type: biochemical; conditions: 37° C., 1 hour, luciferase luminescence
Experimental: As a further measure of antibacterial activity, an E. coli S30 Extract System was used to quantitate inhibition of E. coli translation by tetracycline derivatives. This system contained all required components for translation, including a nucleic acid template which, when translated, produces functional luciferase. The reactions were set up with E. coli S30 extract, amino acids, DNA template and selected tetracycline compounds at concentrations of 100, 50, 25, 10, 5, and 1 μg/ml. The reactions were incubated at 37° C. for 1 hour and analyzed by adding the reaction mix to Steady-Glo Luciferase Assay substrate (Promega, Madison Wis.). Luminescence was measured with the Wallac Victor5 plate reader and inhibition is calculated by comparing luciferase activity in experimental reactions versus controls.

| Structure (SMILES) | IC20 [µM] | pIC50 |
| --- | --- | --- |
| NC(=O)C1=C(O)CC2CC3Cc4ccccc4C(=O)C3=C(O)[C@]2(O)C1=O (stereo partly drawn) [F] | < 100 | > 4.00 |
| CN(C)c1cc(C(=O)O)cc2c1CC1CC3[C@@H](N(C)C)C(O)=C(C(N)=O)C(=O)[C@@]3(O)C(O)=C1C2=O (stereo partly drawn) [G] | < 100 | > 4.00 |
| CC(=O)c1cc2c(c(N(C)C)c1)CC1CC3[C@H](N(C)C)C(O)=C(C(N)=O)C(=O)[C@@]3(O)C(O)=C1C2=O (stereo partly drawn) [H] | < 100 | > 4.00 |

system: S. pneumoniae 157E; assay: In vitro MIC assay, S. pneumoniae 157E; type: cell-based; conditions: Streptococcus pneumoniae, broth supplemented with lysed horse blood, 35° C., 18-24 hours

| Structure (SMILES) | MIC [µg/mL] |
| --- | --- |
| NC(=O)C1=C(O)CC2CC3Cc4ccccc4C(=O)C3=C(O)[C@]2(O)C1=O (stereo partly drawn) [F] | 22 to 43 (≈ 61.9 to 121 µM) |
| CN(C)c1cc(C(=O)O)cc2c1CC1CC3[C@@H](N(C)C)C(O)=C(C(N)=O)C(=O)[C@@]3(O)C(O)=C1C2=O (stereo partly drawn) [G] | 44 to 64 (≈ 90.6 to 132 µM) |
| CC(=O)c1cc2c(c(N(C)C)c1)CC1CC3[C@H](N(C)C)C(O)=C(C(N)=O)C(=O)[C@@]3(O)C(O)=C1C2=O (stereo partly drawn) [H] | 44 to 64 (≈ 91 to 132 µM) |

system: COS-1 or CHO cell; assay: Mammalian cell cytotoxicity assay (Resazurin; Alamar Blue); type: cell-based; conditions: COS-1 or CHO cells, 24 hour incubation
Experimental: To predict the in vivo risks associated with the compounds of the invention, a soluble, non-toxic redox dye (“Resazurin”; Alamar Blue) was used to assess a compound's effect on cellular metabolism. COS-1 or CHO cell suspensions were prepared, seeded into 96-well black-walled microtiter plates, and incubated overnight at 37° C., in 5% CO2 and approximately 95% humidity. On the next day, serial dilutions of test drug were prepared and transferred to cell plates. Following a 24 hour incubation period, the media/drug was aspirated, and 50 μL of resazurin was added. After a 2 hour incubation, fluorescence measurements were taken (excitation […], emission 590 nm) and toxic effects in treated versus control cells were compared based on the degree of fluorescence in each well.

| Structure (SMILES) | cytotoxicity at 75 μg/mL |
| --- | --- |
| CN(C)c1cc(C(=O)O)cc2c1CC1CC3[C@@H](N(C)C)C(O)=C(C(N)=O)C(=O)[C@@]3(O)C(O)=C1C2=O (stereo partly drawn) [G] | minimal cytotoxicity |
| CC(=O)c1cc2c(c(N(C)C)c1)CC1CC3[C@H](N(C)C)C(O)=C(C(N)=O)C(=O)[C@@]3(O)C(O)=C1C2=O (stereo partly drawn) [H] | minimal cytotoxicity |

system: P. aeruginosa K1033; assay: In vitro MIC assay, P. aeruginosa K1033; type: cell-based; conditions: Pseudomonas aeruginosa, broth microdilution, 35° C., 18-24 hours

| Structure (SMILES) | MIC [µg/mL] |
| --- | --- |
| NC(=O)C1=C(O)CC2CC3Cc4ccccc4C(=O)C3=C(O)[C@]2(O)C1=O (stereo partly drawn) [F] | 0 to 21 |
| CN(C)c1cc(C(=O)O)cc2c1CC1CC3[C@@H](N(C)C)C(O)=C(C(N)=O)C(=O)[C@@]3(O)C(O)=C1C2=O (stereo partly drawn) [G] | 44 to 64 (≈ 90.6 to 132 µM) |
| CC(=O)c1cc2c(c(N(C)C)c1)CC1CC3[C@H](N(C)C)C(O)=C(C(N)=O)C(=O)[C@@]3(O)C(O)=C1C2=O (stereo partly drawn) [H] | 22 to 43 (≈ 45.5 to 88.9 µM) |

system: S. aureus MRSA5; assay: In vitro MIC assay, S. aureus MRSA5; type: cell-based; conditions: Staphylococcus aureus, broth microdilution, 35° C., 18-24 hours

| Structure (SMILES) | MIC [µg/mL] |
| --- | --- |
| NC(=O)C1=C(O)CC2CC3Cc4ccccc4C(=O)C3=C(O)[C@]2(O)C1=O (stereo partly drawn) [F] | 0 to 21 |
| CN(C)c1cc(C(=O)O)cc2c1CC1CC3[C@@H](N(C)C)C(O)=C(C(N)=O)C(=O)[C@@]3(O)C(O)=C1C2=O (stereo partly drawn) [G] | 44 to 64 (≈ 90.6 to 132 µM) |
| CC(=O)c1cc2c(c(N(C)C)c1)CC1CC3[C@H](N(C)C)C(O)=C(C(N)=O)C(=O)[C@@]3(O)C(O)=C1C2=O (stereo partly drawn) [H] | 44 to 64 (≈ 91 to 132 µM) |

system: H. influenza (ATCC 49247); assay: In vitro MIC assay, H. influenza (ATCC 49247); type: cell-based; conditions: read-out: MIC H. influenza (ATCC 49247)

| Structure (SMILES) | MIC [µg/mL] |
| --- | --- |
| NC(=O)C1=C(O)CC2CC3Cc4ccccc4C(=O)C3=C(O)[C@]2(O)C1=O (stereo partly drawn) [F] | 0 to 21 |
| CN(C)c1cc(C(=O)O)cc2c1CC1CC3[C@@H](N(C)C)C(O)=C(C(N)=O)C(=O)[C@@]3(O)C(O)=C1C2=O (stereo partly drawn) [G] | 44 to 64 (≈ 90.6 to 132 µM) |
| CC(=O)c1cc2c(c(N(C)C)c1)CC1CC3[C@H](N(C)C)C(O)=C(C(N)=O)C(=O)[C@@]3(O)C(O)=C1C2=O (stereo partly drawn) [H] | 44 to 64 (≈ 91 to 132 µM) |

system: E. coli MG 1655 DWAK; assay: In vitro MIC assay, E. coli MG 1655 DWAK; type: cell-based; conditions: Escherichia coli, MG1655DWAK; broth microdilution, 35° C., 18-24 hours
Experimental: The following assay was used to determine the efficacy of tetracycline compounds against common bacteria. Serial dilutions of compounds were prepared in microdilution plates using a Tecan robotic workstation. Mueller Hinton broth cultures of gram negative and gram positive strains were grown or adjusted to match the turbidity of a 0.5 McFarland standard. 1:200 dilutions were made in appropriate broth (cation supplemented Mueller Hinton broth or Haemophilus test medium) to allow a final inoculum of 1×10^5 cfu. Lysed horse blood was used to supplement broth for testing S. pneumoniae. The plates were incubated at 35° C. in ambient air for 18-24 hours, read spectrophotometrically, and checked manually for evidence of bacterial growth. Serial dilutions of compounds were also added to Brucella agar supplemented with laked sheep blood for P. acnes tests. A standard inoculum was transferred to the plate using a stainless steel replicator. After 48 hours of anaerobic incubation at 35° C. plates were examined. The MIC was defined as the lowest concentration of the tetracycline compound that inhibits growth. Table 3 gives the MIC (μg/mL) of selected substituted tetracycline compounds against a variety of gram positive and gram negative bacteria.

| Structure (SMILES) | MIC [µg/mL] |
| --- | --- |
| NC(=O)C1=C(O)CC2CC3Cc4ccccc4C(=O)C3=C(O)[C@]2(O)C1=O (stereo partly drawn) [F] | 0 to 21 |
| CN(C)c1cc(C(=O)O)cc2c1CC1CC3[C@@H](N(C)C)C(O)=C(C(N)=O)C(=O)[C@@]3(O)C(O)=C1C2=O (stereo partly drawn) [G] | 44 to 64 (≈ 90.6 to 132 µM) |
| CC(=O)c1cc2c(c(N(C)C)c1)CC1CC3[C@H](N(C)C)C(O)=C(C(N)=O)C(=O)[C@@]3(O)C(O)=C1C2=O (stereo partly drawn) [H] | 22 to 43 (≈ 45.5 to 88.9 µM) |

system: E. coli (ATCC 25922); assay: In vitro MIC assay, E. coli (ATCC 25922); type: cell-based; conditions: Escherichia coli, ATCC25922; broth microdilution, 35° C., 18-24 hours

| Structure (SMILES) | MIC [µg/mL] |
| --- | --- |
| NC(=O)C1=C(O)CC2CC3Cc4ccccc4C(=O)C3=C(O)[C@]2(O)C1=O (stereo partly drawn) [F] | 44 to 64 (≈ 124 to 180 µM) |
| CN(C)c1cc(C(=O)O)cc2c1CC1CC3[C@@H](N(C)C)C(O)=C(C(N)=O)C(=O)[C@@]3(O)C(O)=C1C2=O (stereo partly drawn) [G] | 44 to 64 (≈ 90.6 to 132 µM) |
| CC(=O)c1cc2c(c(N(C)C)c1)CC1CC3[C@H](N(C)C)C(O)=C(C(N)=O)C(=O)[C@@]3(O)C(O)=C1C2=O (stereo partly drawn) [H] | 44 to 64 (≈ 91 to 132 µM) |

system: Mouse 3T3 fibroblast cells; assay: Phototoxicity assay (neutral red); type: cell-based; conditions: 3T3 cells, UV light 1.6-1.8 mW/cm^2, 30 μM
Experimental: Mouse 3T3 fibroblast cells were harvested and plated at a concentration of 1×10^5 cells/mL. Drug dilutions were made in HBSS and added to the plates. Duplicate plates were then incubated in the dark (for controls), or under UV light (meter reading of 1.6-1.8 mW/cm^2) for 50 minutes. Cells were then washed with HBSS, fresh medium was added, and plates were then incubated overnight. The following day, neutral red was added as an indicator of cell viability and plates were incubated for an additional 3 hours. Cells were then washed with HBSS and a solution of 50% EtOH, 10% glacial acetic acid is added. After a 20 minute incubation period, plates absorbance at 535 nm were read using a Wallac Victor 5 spectrophotometer. The phototoxicity in light-treated and control cultures was then compared.

| Structure (SMILES) | phototoxicity at 30 μM, incubated in the UV light |
| --- | --- |
| CN(C)c1cc(C(=O)O)cc2c1CC1CC3[C@@H](N(C)C)C(O)=C(C(N)=O)C(=O)[C@@]3(O)C(O)=C1C2=O (stereo partly drawn) [G] | minimally phototoxic |

same assay, conditions: 3T3 cells, incubated in the dark, 150 μM

| Structure (SMILES) | phototoxicity at 150 μM, incubated in the dark |
| --- | --- |
| NC(=O)C1=C(O)CC2CC3Cc4ccccc4C(=O)C3=C(O)[C@]2(O)C1=O (stereo partly drawn) [F] | not to be appreciably phototoxic |
| CN(C)c1cc(C(=O)O)cc2c1CC1CC3[C@@H](N(C)C)C(O)=C(C(N)=O)C(=O)[C@@]3(O)C(O)=C1C2=O (stereo partly drawn) [G] | not to be appreciably phototoxic |
| CC(=O)c1cc2c(c(N(C)C)c1)CC1CC3[C@H](N(C)C)C(O)=C(C(N)=O)C(=O)[C@@]3(O)C(O)=C1C2=O (stereo partly drawn) [H] | not to be appreciably phototoxic |
